According to PMC12700550, “DLL4^+ neutrophils promote Notch1-mediated endothelial PANoptosis to exacerbate acute lung injury in sepsis” (The Journal of Clinical Investigation, 2025):
Several values for one entry are separate records, joined by “and”; a condition that tells them apart may be missing. Equal entries are not always repeated.

Tests used:
TNF-α = assay: Serum TNF-α, CLP mice, ELISA; type: in vivo, mouse; conditions: DLL4^+ neutrophil-injected CLP mice, 10 mg/kg, 20 h
Method: Sepsis was induced in mice by cecal ligation and puncture (CLP) as described previously ([45], [46]). Mice were anesthetized with isoflurane to a surgical plane and placed in a supine position. CLP was performed through a midline laparotomy. The abdomen was shaved and disinfected. Through a 2 cm midline incision, the cecum was exposed and then ligated with a 4-0 silk suture 1 cm proximal from the distal cecal extremity. For 20-hour CLP experiments, the cecum was punctured twice with a 22-gauge needle. A small amount of cecal content was extruded through both holes, and the ligated cecum was returned to the peritoneal cavity. The wound was closed in layers. For 10-day sepsis survival studies, the cecum was punctured once with a 22-gauge needle. A small amount of cecal content was extruded. Mice were allocated to the vehicle and adoptive transfer of DLL4^+ neutrophils or DLL4^– neutrophils groups. […]
Blood was collected by heart puncture and centrifuged at 1,500g and 4°C for 10 minutes, and the plasma was separated to assess cytokine levels using enzyme-linked immunosorbent assay (ELISA) kits (BD Biosciences). The plasma TNF-α (catalog 558534) and IL-6 (catalog 555240) levels were measured by ELISA.

c-caspase-3 = assay: c/t caspase-3 (apoptosis) in PVECs cocultured with neutrophils, Western blot; type: cell-based, mouse; conditions: for c/t caspase-3 (Figure 4H): 10 μM peptide, 16 h, individual replicates
Method: Wild-type PVECs (5 × 10^5) were cocultured with sorted DLL4^+ neutrophils (5 × 10^5) or DLL4^– neutrophils (5 × 10^5) and then treated with different dosages of peptides or 10 μM DAPT (Thermo Fisher Scientific), 10 μM NDI (GenScript), or 10 μM NDI scramble (GenScript). Notch1-knockdown PVECs (5 × 10^5) were cocultured with sorted DLL4^+ neutrophils (5 × 10^5). After 16 hours, neutrophils were washed away by PBS, and PVECs were collected for further experiments. Cell viability was evaluated by propidium iodide staining using the FITC Annexin V Apoptosis Detection Kit I (catalog 556547, BD Pharmingen). Cell death was quantified as the percentage of propidium iodide–positive cells by flow cytometry.
PVECs and lung tissue were collected in previous steps. Whole-cell proteins were extracted, and the protein concentration was measured using an ABC protein assay kit (catalog 5000002, Bio-Rad). Proteins were separated using NuPAGE 4%–12% Bis-Tris gels (Invitrogen), transferred to PVDF membranes, and immunoblotted with the antibodies indicated in the figure legends according to the manufacturer’s recommendations. The ZBP1 antibody (catalog PA5-20455; 1:1,000) used in this study was obtained from Thermo Fisher Scientific, and the c-GSDMD (catalog 10137S; 1:250), GSDMD (catalog 39754S; 1:1000), c-caspase-3 (catalog 9661L; 1:250), caspase-3 (catalog 9662S; 1:1,000), p-MLKL (catalog 37333S; 1:250), MLKL (catalog 37705S; 1:1,000), N1ICD (c-Notch1) (catalog 4147S; 1:250), and Notch1 (catalog 3608S; 1:1,000) antibodies were obtained from Cell Signaling Technology. GAPDH (catalog 60004-1-Ig; 1:10,000) and β-actin (catalog A5441, Sigma-Aldrich; 1:5,000) were obtained from ProteinTech. After the blots were incubated with primary antibodies, the membranes were washed 3 times, and the blots were subsequently incubated with the corresponding fluorescent secondary antibody (LI-COR). Bands were detected using an Odyssey FC Dual-Mode Imaging system 2800 (LI-COR).

C57BL/6 mice, CLP sepsis = assay: Serum alanine aminotransferase (ALT), CLP mice; type: in vivo, mouse; set-up: serum ALT (Figure 6A): unit not given here; conditions: 20 h; for serum ALT (Figure 6A): 10 mg/kg NDI, individual mice
Method: Sepsis was induced in mice by cecal ligation and puncture (CLP) as described previously ([45], [46]). Mice were anesthetized with isoflurane to a surgical plane and placed in a supine position. CLP was performed through a midline laparotomy. The abdomen was shaved and disinfected. Through a 2 cm midline incision, the cecum was exposed and then ligated with a 4-0 silk suture 1 cm proximal from the distal cecal extremity. […] A small amount of cecal content was extruded through both holes, and the ligated cecum was returned to the peritoneal cavity. The wound was closed in layers. […] A small amount of cecal content was extruded. […] Vehicle groups received an equivalent volume of PBS, while treatment groups received NDI 10 mg/kg in […] PBS via retro-orbital injection after CLP. This dose was chosen primarily on the basis of our laboratory’s prior experience, we have consistently used this dose in mouse CLP models with reproducible efficacy and without observable toxicity ([39], [44]). Sham-operated animals underwent a laparotomy without CLP. After closure, the mice received a subcutaneous injection of 0.5 mL of normal saline to overcome surgery-induced dehydration. […] All mice were subcutaneously injected with a single dose of 0.1 mg/kg buprenorphine after CLP. Serum levels of alanine aminotransferase, aspartate aminotransferase, and lactate dehydrogenase were determined using specific colorimetric enzymatic assays (Pointe Scientific Inc.) according to the manufacturer’s instructions.

[1] = test system: DLL4 expression on human neutrophils; assay: Frequency of DLL4^+ neutrophils (CD66^+DLL4^+), human peripheral blood neutrophils; type: cell-based; conditions: 12 h
Description: Blood samples were obtained from the deidentified healthy human subjects. Written informed consent was obtained from all participants, and human subject protocols were approved by the Institutional Review Board of the North Shore University Hospital. Five milliliters of blood was collected by venipuncture and placed in EDTA blood collection tubes. We isolated the neutrophils from fresh blood samples by immunomagnetic cell separation using an EasySep Direct Human Neutrophil Isolation Kit (catalog 19666, Stem Cell Technologies). A total of 20 × 10^6 neutrophils were obtained from 5 mL of blood. Neutrophils (1 × 10^6 cells/mL) were stimulated with 1 μg/mL eCIRP for 12 hours. The cells were then stained with anti-CD66b (clone G10F5, catalog 984102, BioLegend) and DLL4 antibodies (clone MHD4-46, catalog 346506, BioLegend), and the frequencies (percentage) of DLL4^+ neutrophils were detected by flow cytometry.

Molecule | effect on serum TNF-α (TNF-α) | effect on c-caspase-3 (c-caspase-3; 10 μM NDI, DLL4^+ neutrophil coculture) | c/t caspase-3 (Figure 4H) (c-caspase-3; DLL4^+ neutrophil coculture) | c/t caspase-3 (Figure 4H) (c-caspase-3; DLL4^– neutrophil coculture) | effect on serum ALT (C57BL/6 mice, CLP sepsis; DLL4^+ neutrophil-injected CLP mice, 10 mg/kg) | serum ALT (Figure 6A) (C57BL/6 mice, CLP sepsis; DLL4^+ neutrophils + CLP) | serum ALT (Figure 6A) (C57BL/6 mice, CLP sepsis; DLL4^– neutrophils + CLP) | frequency of DLL4^+ neutrophils (Figure 1K) ([1]; human neutrophils 1 × 10^6/mL, eCIRP 1 μg/mL, individual replicates) | effect on frequency of DLL4^+ neutrophils ([1]; human peripheral blood neutrophils, 1 μg/mL)
ECAGSPCHNGGTCEDGI [NDI] | significantly reduced the serum levels of hepatic and cell injury markers and proinflammatory cytokines | significantly reduced these markers of PANoptosis | 0.8975 and 0.9855 and 1.108 and 1.088 and 1.039 and 1.038 | 0.9343 and 1.21 and 1.29 and 1.079 and 1.0374 and 1.09 | significantly reduced the serum levels of hepatic and cell injury markers and proinflammatory cytokines | 41.99 and 15.47 and 55.25 and 44.642 and 25.194 and 38.454 and 50.83 and 38.896 and 29.172 and 10.94 and 28.288 and 3.978 and 26.078 and 2.21 | 37.57 and 15.028 and 26.52 and 77.35 and 30.94 and 22.1 and 12.818 and 10.608 | – | –
eCIRP: extracellular cold-inducible RNA-binding protein; recombinant murine, produced in our laboratory (protein, UniProt P60824 1-172, looked up) Cold-inducible RNA-binding …: MASDEGKLFVGGLSFDTNEQALEQVFSKYGQISEVVVVKDRETQRSRGFGFVTFENIDDAKDAMMAMNGKSVDGRQIRVDQAGKSSDNRSRGYRGGSAGGRGFFRGGRSRGRGFSRGGGDRGYGGGRFESRSGGYGGSRDYYASRSQGGSYGYRSSGGSYRDSYDSYATHNE | – | – | – | – | – | – | – | 16% and 10.3% and 4.81% and 7.94% and 7.27% and 10.4% and 15.89% and 20.5% and 19.83% | significantly increased the frequency of DLL4^+ neutrophils
